# Source: patent US11578368B2, “Methods, tools and systems for the assessment, prevention, management and treatment selection for type 2 diabetes” (Patia Biopharma, S.A. De C.V., priority 2015, dated 2023)
# Assays:
# [1] = tested on: patients with and without the E508K variant of HNF1A; assay: Study of acute glipizide response in humans with the HNF1A E508K variant; format: in vivo, human; details: carriers vs non-carriers of HNF1A E508K, preliminary results, statistical analysis ongoing
# Method: Acute and medium-term response to glipizide in patients with and without the E508K variant of HNF1A will be measured. The study will consist of two phases. Patients will be invited to participate in both, but the research subject will have the freedom to choose only one of the stages of the study.
# Open Study of a Single Dose of Glipizide (5 mg) in Patients With and Without the E508K Variant of HNF1A
# Main Objective: To compare the change in glucose between carriers and noncarriers after a single oral administration of 5 mg of glipizide. […]
# Eligible patients will discontinue antidiabetic therapy and initiate a washout period of 7 days, during which they will be monitored for hyperglycemia requiring re-initiation of antidiabetic therapy. […]
# Patients will be admitted to the clinical research center after fasting for 8 hours. […] The concentrations of glucose, insulin and other hormones (GLP1) and metabolites will be measured at 15, 30, 60, 90, 120, 180, and 240 minutes after administration of 5 mg of glipizide. In the event of developing symptoms of hypoglycemia, blood glucose will be measured immediately. […]
# [2] = cited from earlier work
# [3] = cited from earlier work; remark: listed apart in the source
Structure (SMILES),hypoglycaemic response to glipizide in carriers of the E508K HNF1A variant [1],hypoglycaemic response to glipizide in carriers of the E508K HNF1A variant ([1]; listed as glipizide),risk of inducing severe hypoglycemia ([2]; described as low),life ([3]; described as short),time until it starts acting ([3]; oral),rate of gastrointestinal adverse events ([2]; at the proposed dose)
Cc1cnc(C(=O)NCCc2ccc(S(=O)(=O)NC(=O)NC3CCCCC3)cc2)cn1 [Glipizide],greater response,great hypoglycaemic response,0.19-2.5 episodes per 1000 patient-years,2 to 8 h,≤ 30 min,–
CN(C)C(=N)N=C(N)N [Metformin],–,–,–,–,–,low rate
